US11692212B2, “Diagnosis and treatment of invasive aspergillosis” (The Brigham and Women's Hospital, Inc., priority 2014, dated 2023)
Starred links: 1 amine or outer side, 2 acyl side, 3 side chain; linkers in the order of their positions; H or OH if unused. Positions of bridges follow the written chain, without caps; N, C: chain ends. Non-standard residues stand in square brackets, D forms with d. Residues, ends and D or L forms follow the SMILES beside them. *: point of attachment. hTyr(3S-OH,4S-OH,3'-OSO3H) = N[C@H](C(=O)O)[C@H](O)[C@@H](O)c1ccc(O)c(OS(=O)(=O)O)c1; Orn(4R-OH,5R-OH) = O=C([C@H](C[C@@H](O)[C@@H](O)N[*:3])N[*:1])[*:2]; Pro(3S-OH,4S-Me) = C[C@H]1CN[C@H](C(=O)O)[C@H]1O; X1 = CCCCCOc1ccc(-c2cc(-c3ccc(C(=O)*)cc3)no2)cc1; Gln(3R-OH) = NC(=O)C[C@@H](O)[C@H](N)C(=O)O; Hyp = O=C(O)[C@@H]1C[C@@H](O)CN1

Legend:
[1] = system: A. fumigatus Af293 and A1163; assay: A. fumigatus volatome response to antifungal drug exposure, headspace TD-GC-MS (Example 2); assay type: cell-based, Aspergillus fumigatus; conditions: 1.0 μg/mL; for all volatile metabolites 36 hours later: 36 hours after the 12-hour sampling
Procedure: We assessed whether we could modulate the A. fumigatus VOC metabolome with voriconazole, micafungin, and liposomal amphotericin B antifungal drug exposure, as described online (Methods). Headspace volatile metabolites of A. terreus, A. flavus, A. niger, and A. calidoustus were characterized as outlined above, in YPD broth at 96 hours.
Assessment of the A. fumigatus volatome response to antifungal drug exposure: For an assessment of A. fumigatus VOC response to antifungal drug exposure, 10^4A. fumigatus Af293 and A1163 conidia were inoculated into YPD broth and incubated at 37° C. at 250 rpm for 48 hours, then exposed to an inhibitory dose (1.0 μg/mL) of voriconazole (Pfizer Inc., New York, N.Y.), micafungin, liposomal amphotericin (both Astellas Pharma US, Inc., Northbrook, Ill.), or no antifungal therapy for 12 hours, in 4 technical replicates, with matched media controls exposed to the same conditions. VOCs in the headspace of each vial were extracted onto thermal desorption tubes. The cultures and media samples were incubated at 37° C. at 250 rpm for another 36 hours, with repeat extraction of the headspace gas onto thermal desorption tubes.
For both in vitro culture headspace extractions and patient breath samples, VOCs were thermally desorbed onto an automated thermal desorption unit (TD-100, Markes International) at 290° C. for 20 minutes with helium carrier gas at a flow rate of 40 mL per minute and concentrated onto a Unity2/TD-100 cold trap (U-15ATA-2S, Markes International). The cold trap was rapidly heated to 270° C. to deliver adsorbed VOCs (3.5:1 split) to a VF624 capillary column (30 m×0.32 mm, 6% cyanopropyl/phenyl, 94% polydimethylsiloxane, film thickness 1.8 μm, Agilent Technologies, Santa Clara, Calif.) with a gas chromatograph (GC) inlet temperature of 250° C. VOCs delivered to the capillary column were separated using a GC temperature program of 40° C. for 3 minutes, raised to 70° C. at a rate of 5° C. per minute and held for 3 minutes, raised to 203° C. at 7° C. per minute and held for 4 minutes, then rapidly raised to 270° C. and held for 5 minutes. A single quadrupole mass spectrometry (MS) detector (Agilent 5975, Agilent Technologies, Santa Clara, Calif.) was used to analyze and identify VOCs, with a MS source temperature of 230° C., MS quad temperature of 150° C., and an electron ionization parameter of […]. A mass range m/z 40-400 was measured with a threshold of 150.
We assessed whether we could modulate the A. fumigatus VOC metabolome with voriconazole, micafungin, and liposomal amphotericin B antifungal drug exposure. […]

Aspergillus fumigatus = assay: Antifungal exposure of 48-hour hyphal cultures, headspace VOC release by GC-MS (Example 1); assay type: cell-based; parameters: increase in some of the key A. fumigatus VOC features / change of key A. fumigatus VOC features at 24 hours: dose or concentration left out as unconfirmed; conditions: for change of key A. fumigatus VOC features at 24 hours: vs matched controls
Procedure: For each experiment, 10^4 conidia were inoculated into 5 mL of microbial media (either nutrient Yeast Extract Peptone Dextrose (YPD) broth, nutrient poor Aspergillus minimal media (Pontecorvo et al., Advan Genet 1953; 5:141-238), or under iron-starved, alkaline stress, or nitrogen-depleted conditions (McDonagh et al., PLoS Pathog 2008; 4:e1000154)) in 20 mL glass vials with an airtight crimp top incorporating a rubber septum. Cultures were incubated for 24-144 hours at 200 rpm and 37° C. and headspace gas was dynamically adsorbed, using argon carrier gas and an air sampling pump calibrated to 20 mL/minute, onto Markes thermal desorption traps containing tandem beds of Tenax TA (200 mg), Carbograph 1 TD (100 mg), and Carboxen 1003 (100 mg), optimized to retain VOCs of diverse size and polarity.
Headspace VOCs were also collected after exposure of a subset of fungal isolates to the antifungal drugs voriconazole, liposomal amphotericin B, and micafungin, each at a concentration of […].
VOCs were desorbed onto a dual GC-MS/DMS system (FIG. 1)—the eluent from the gas chromatograph was split between the MS, to allow identification of each compound, and the DMS, an extremely sensitive and selective gas detector that can be easily used as a point-of-care gas detection device, to determine the mobility pattern for each compound. The NIST MS Search 2.0 Library was used to identify VOCs in the total ion chromatogram (TIC) of the GC-MS data. Differences in spectral features of DMS output were visually distinguished between the positive ion spectra of A. fumigatus and A. terreus and principal component analysis (PCA) was used to evaluate the degree of class discrimination between these fungal species using algorithms in MATLAB (Version R2012a).
Whether exposure to antifungal drugs might modulate VOC release in Aspergillus fumigatus was assessed in vitro.

A. terreus isolates = conditions: Baddley et al. 2009; cited from earlier work
[2] = drug added to 48-hour hyphal cultures, after 24 hours

Compound | β-trans-bergamotene increase from baseline ([1]; 12 hours of exposure, 48-hour hyphae in YPD broth) [fold] | all volatile metabolites 36 hours later [1] | increase in some of the key A. fumigatus VOC features (Aspergillus fumigatus; drug added to 48-hour hyphal cultures, after 24 hours, vs matched control samples without drug) [fold] | change of key A. fumigatus VOC features at 24 hours (Aspergillus fumigatus; [2]) | change of key A. fumigatus VOC features with longer incubation (Aspergillus fumigatus; longer duration of incubation and hyphal death) | primary metabolite, monoterpene, and sesquiterpene production ([1]; 12 hours of exposure) | susceptibility of some A. terreus isolates (A. terreus isolates)
CCCCCOc1ccc(-c2cc(-c3ccc(C(=O)N[C@H]4C[C@@H](O)[C@@H](O)NC(=O)[C@@H]5[C@@H](O)[C@@H](C)CN5C(=O)[C@H]([C@H](O)CC(N)=O)NC(=O)[C@H]([C@H](O)[C@@H](O)c5ccc(O)c(OS(=O)(=O)O)c5)NC(=O)[C@@H]5C[C@@H](O)CN5C(=O)[C@H]([C@@H](C)O)NC4=O)cc3)no2)cc1 [micafungin] (X1-[Orn(4R-OH,5R-OH)]T[Hyp][hTyr(3S-OH,4S-OH,3'-OSO3H)][Gln(3R-OH)][Pro(3S-OH,4S-Me)]; lactam 1-C) | 10 | near-complete attenuation | ≤ 17 | initial increase | attenuation | – | –
C[C@@H](c1ncncc1F)[C@](O)(Cn1cncn1)c1ccc(F)cc1F [voriconazole] | – | attenuation | – | near-complete attenuation | – | reduced | –
C[C@@H]1[C@H](O)[C@@H](C)/C=C/C=C/C=C/C=C/C=C/C=C/C=C/[C@H](O[C@@H]2O[C@H](C)[C@@H](O)[C@H](N)[C@@H]2O)C[C@@H]2O[C@](O)(C[C@@H](O)C[C@@H](O)[C@H](O)CC[C@@H](O)C[C@@H](O)CC(=O)O[C@H]1C)C[C@H](O)[C@H]2C(=O)O [AMB, amphotericin B] | – | – | – | – | – | – | resistant
